# System: MHC class I molecules of T1 cells (human lymphoma cell line 174×CEM.)
# Assay: Effect on expression of MHC class I from T1 cells (flow cytometry, MFI)
# Assay type: cell-based
# Conditions: 3 days culture
# Protocol: Effect on Expression of MHC Class I from T1 Cells (Human Lymphoma Cell Line 174×CEM.)
# Using a 96-well flat bottom microplate, T1 cells (5.7×10^3 cells/200 μl/well) were cultured in an RPMI 1640 medium (Iwaki Glass) containing 10% fetal bovine serum (hereinafter abbreviated as FBS; Iruvine Scientific) in an incubator containing 5% carbon dioxide at 37° C. for 3 days, in the presence of a test compound having each concentration obtained by dilution at a common ratio route of 10 from 400 μM. After completion of the culture, the cells were stained with fluoroisothiocyanate-labeled mouse anti-human MHC class I monoclonal antibody (an antibody produced from the cell line W6/32 (ATCC No. CRL 1991)). The mean fluorescence intensity of the stained cells (hereinafter referred to as MFI) was measured using flow cytometry FACScan (BD). The obtained value was defined as an expression level of MHC class I molecules. A test compound concentration necessary for suppressing 20% of the expression level of MHC class I molecules (EC20 value) was calculated using the following formula (1).
# [formula] • Eexp: MFI of cultured cells containing test compound after being stained with antibody • Cexp: MFI of cultured cells containing no test compounds after being stained with antibody
row,Structure (SMILES),EC20 (concentration necessary for suppressing 20% of the expression level of MHC class I molecules)
1,CC(C)COc1cccc(-c2ccnc3nc(NC(=O)NC(C)C)nn23)c1 [Example 172],240 nM
2,CNC(=O)C1CCCC(NC(=O)Nc2nc3nccc(-c4ccc(OC)cc4)n3n2)C1 (centres unmarked) [Example 174],330 nM
3,COc1ccc(-c2ccnc3nc(NC(=O)NC4CCCC(C(=O)N(C)C)C4)nn23)cc1 (centres unmarked) [Example 175],300 nM
4,COc1ccc([C@H](C)NC(=O)Nc2nc3nccc(-c4cccs4)n3n2)cc1 [Example 176],200 nM
5,CC(C)NC(=O)Nc1nc2nccc(-c3cccc(OCCc4ccccc4)c3)n2n1 [Example 180],350 nM
6,COc1cccc([C@H](C)NC(=O)Nc2nc3nccc(-c4cccs4)n3n2)c1 [Example 181],430 nM
7,C[C@H](NC(=O)Nc1nc2nccc(-c3cccs3)n2n1)c1ccc(O)cc1 [Example 182],280 nM
8,CC(C)NC(=O)Nc1nc2nccc(-c3cccc(OCc4ccccn4)c3)n2n1 [Example 185],350 nM
9,COc1ccc([C@H](C)NC(=O)Nc2nc3nccc(-c4cccc(OC)c4)n3n2)cc1 [Example 186],440 nM
10,COc1cccc(-c2ccnc3nc(NC(=O)N[C@@H](C)CCCC(C)C)nn23)c1 [Example 188],80 nM
11,CC(C)NC(=O)Nc1nc2nccc(-c3cccc(OCCN4CCOCC4)c3)n2n1 [Example 189],590 nM
12,CC(C)NC(=O)Nc1nc2nccc(-c3cccc(OCCCN(C)C)c3)n2n1 [Example 192],900 nM
13,CC(C)NC(=O)Nc1nc2nccc(-c3cccc(OCc4ccncc4)c3)n2n1 [Example 193],310 nM
14,CC(C)NC(=O)Nc1nc2nccc(-c3cccc(OCCCc4ccccc4)c3)n2n1 [Example 194],420 nM
15,COc1cccc([C@H](C)NC(=O)Nc2nc3nccc(-c4cccc(OCc5ccccc5)c4)n3n2)c1 [Example 199],280 nM
16,COc1cccc([C@H](C)NC(=O)Nc2nc3nccc(-c4cccc(O)c4)n3n2)c1 [Example 200],70 nM
17,COc1cccc([C@H](C)NC(=O)Nc2nc3nccc(-c4cccc(OCc5ccccn5)c4)n3n2)c1 [Example 201],160 nM
18,COc1cccc([C@H](C)NC(=O)Nc2nc3nccc(-c4cccc(OCc5cccnc5)c4)n3n2)c1 [Example 202],60 nM
19,COc1cccc([C@H](C)NC(=O)Nc2nc3nccc(-c4cccc(OCc5ccncc5)c4)n3n2)c1 [Example 203],190 nM
20,COc1cccc([C@H](C)NC(=O)Nc2nc3nccc(-c4cccc(OCCN5CCOCC5)c4)n3n2)c1.Cl [Example 204],70 nM
21,COc1cccc([C@H](C)NC(=O)Nc2nc3nccc(-c4cccc(OCCN(C)C)c4)n3n2)c1 [Example 205],190 nM
22,COc1cccc([C@H](C)NC(=O)Nc2nc3nccc(-c4cccc(OCCC5OCCCO5)c4)n3n2)c1 [Example 207],60 nM
23,COc1cccc([C@H](C)NC(=O)Nc2nc3nccc(-c4cccc(OCCc5ccccn5)c4)n3n2)c1 [Example 208],180 nM
24,COc1cccc([C@H](C)NC(=O)Nc2nc3nccc(-c4cccc(OCCc5ccncc5)c4)n3n2)c1 [Example 209],40 nM
25,COc1cccc([C@H](C)NC(=O)Nc2nc3nccc(-c4cccc(OCCCc5cccnc5)c4)n3n2)c1 [Example 210],130 nM

row,Structure (SMILES),EC20 (concentration necessary for suppressing 20% of the expression level of MHC class I molecules)
1,COc1cccc([C@H](C)NC(=O)Nc2nc3nccc(-c4cccc(OCCCc5ccncc5)c4)n3n2)c1 [Example 211],60 nM
2,COCOc1cccc(-c2ccnc3nc(NC(=O)N[C@@H](C)c4cccc(OC)c4)nn23)c1 [Example 212],180 nM
3,COCCOCOc1cccc(-c2ccnc3nc(NC(=O)N[C@@H](C)c4cccc(OC)c4)nn23)c1 [Example 213],150 nM
4,COc1ccc(-c2ccnc3nc(NC(=O)NCc4ccccc4OC)nn23)cc1 [Example 214],420 nM
5,COc1ccc(-c2ccnc3nc(NC(=O)NCc4ccc5c(c4)OCO5)nn23)cc1 [Example 215],150 nM
6,COc1ccc(-c2ccnc3nc(NC(=O)N[C@@H](C)C(C)C)nn23)cc1 [Example 216],160 nM
7,COc1ccc(-c2ccnc3nc(NC(=O)N[C@@H](C)C(C)(C)C)nn23)cc1 [Example 217],320 nM
8,COc1ccc(-c2ccnc3nc(NC(=O)N[C@@H](C)C4CCCCC4)nn23)cc1 [Example 218],180 nM
9,COc1ccc(-c2ccnc3nc(NC(=O)N[C@@H](C)C(C)=O)nn23)cc1 [Example 220],720 nM
10,COc1cccc([C@H](C)NC(=O)Nc2nc3nccc(-c4cccc(OCCCN(C)C)c4)n3n2)c1 [Example 221],120 nM
11,"COc1cccc([C@H](C)NC(=O)Nc2nc3nccc(-c4ccc(OCc5ccccc5)cc4)n3n2)c1 [Example 222, (S)-1-[7-(4-benzyloxyphenyl)-[1,2,4]triazolo[1,5-a]pyrimidin-2-yl]-3-[1-(3-methoxyphenyl)ethyl]urea]",100 nM
12,"COc1cccc([C@H](C)NC(=O)Nc2nc3nccc(-c4ccc(O)cc4)n3n2)c1 [Example 223, (S)-1-[7-(4-hydroxyphenyl)-[1,2,4]triazolo[1,5-a]pyrimidin-2-yl]-3-[1-(3-methoxyphenyl)ethyl]urea]",14 nM
13,COc1cccc([C@H](C)NC(=O)Nc2nc3nccc(-c4ccc(OCC5CCCO5)cc4)n3n2)c1 (some centres unmarked) [Example 224],90 nM
14,COc1cccc([C@H](C)NC(=O)Nc2nc3nccc(-c4ccc(OCCC5OCCCO5)cc4)n3n2)c1 [Example 225],50 nM
15,COCOc1ccc(-c2ccnc3nc(NC(=O)N[C@@H](C)c4cccc(OC)c4)nn23)cc1 [Example 226],50 nM
16,COCCOCOc1ccc(-c2ccnc3nc(NC(=O)N[C@@H](C)c4cccc(OC)c4)nn23)cc1 [Example 227],70 nM
17,COc1cccc([C@H](C)NC(=O)Nc2nc3nccc(-c4ccc(OCC(=O)O)cc4)n3n2)c1 [Example 229],690 nM
18,COc1cccc([C@H](C)NC(=O)Nc2nc3nccc(-c4ccc(N(C)C)cc4)n3n2)c1 [Example 232],40 nM
19,COCCCC[C@H](C)NC(=O)Nc1nc2nccc(-c3ccc(OC)cc3)n2n1 [Example 233],40 nM
20,CC[C@H](C)NC(=O)Nc1nc2nccc(-c3ccc(OC)cc3)n2n1 [Example 234],220 nM
21,COC[C@H](C)NC(=O)Nc1nc2nccc(-c3ccc(OC)cc3)n2n1 [Example 237],250 nM
22,COCCOCCOCCOc1ccc(-c2ccnc3nc(NC(=O)N[C@@H](C)c4cccc(OC)c4)nn23)cc1 [Example 238],15 nM
23,COCCOCCOCCOc1cccc(-c2ccnc3nc(NC(=O)N[C@@H](C)c4cccc(OC)c4)nn23)c1 [Example 239],110 nM
24,"COCCOc1ccc(-c2ccnc3nc(NC(=O)N[C@@H](C)c4cccc(OC)c4)nn23)cc1 [Example 244, (S)-1-{7-[4-(2-methoxyethoxy)phenyl]-[1,2,4]triazolo[1,5-a]pyrimidin-2-yl}-3-[1-(3-methoxyphenyl)ethyl]urea]",19 nM
25,"CC(C)CCC[C@H](C)NC(=O)Nc1nc2nccc(-c3ccc(OCc4ccccc4)cc3)n2n1 [Example 245, (S)-1-[7-(4-benzyloxyphenyl)-[1,2,4]triazolo[1,5-a]pyrimidin-2-yl]-3-(1,5-dmethylhexyl)urea]",180 nM

# From patent publication US7598244B2, “[1,2,4]triazolo[1,5,a]pyrimidin-2-ylurea derivative and use thereof” (Nippon Kayaku Kabushiki Kaisha, priority 2003, dated 2009)
